Measurements as given in patent publication US20260109708A1, “COMPOUNDS AND COMPOSITIONS USEFUL AS DEGRADERS OF MK2 KINASE” (Celgene Corporation, priority 2023, published 2026).
pIC50: −log10 of the molar value.

Molecular target: T1, p38a activated, mitogen-activated protein kinase-activated protein kinase 2 (MAPKAP-K2 or MK2) enzyme (Homo sapiens, UniProt P49137)
T1 construct: purchased Invitrogen PV3317
Experiment: MK2 OMNIA biochemical assay (AssayQuant continuous-read kinase assay)
Conditions: [MK-2]=0.05 nM, [ATP]=100 μM, [AQT0425]=10 μM
Source text: Example 56.2. Mitogen-Activated Protein Kinase-Activated Protein Kinase 2 AssayQuant Technologies® Assay for Compound Potency Assessment (MK2 OMNIA Biochemical Assay)
The protocol below describes a continuous-read kinase assay optimized to measure potency of compounds against p38a activated, mitogen-activated protein kinase-activated protein kinase 2 (MAPKAP-K2 or MK2) enzyme.
A 1.25× stock solution of MK2 (PV3317, from Invitrogen) and a 5× stock solution of ATP and Sox conjugated peptide substrate, AQT0425 (CSKS-AQT0425B, from AssayQuant Technologies), were prepared in 1× kinase reaction buffer consisting of 50 mM HEPES, pH 7.5, 0.01% Brij-35, 0.55 mM EGTA, 10 mM MgCl2 and 1 mM DTT.
10 μL of the ATP and substrate solution mix was added to a Coming (3574) 384-well, white, non-binding surface microtiter plate containing 0.5 μL of serially diluted test compounds prepared in DMSO. The reactions were started with the addition of 40 μL of the enzyme solution and monitored every 71 seconds for 240 min at kex 360/λem 485 in a Synergy H4 plate reader from BioTek at room temperature.
The initial linear portions of the net progress curves were fit according to a linear equation to yield the slope and percentage of inhibition (% inhibition) at each compound concentration. The net progress curves obtained during the entirety of reactions were also fit according to an ascending single-exponential equation (Eq. 1) to yield Vobs values at each compound concentration. Plots of % Inhibition versus degrader concentrations were fit according to a dose-response equation (Eq. 2) to generate IC50 and Hill slope values while plots of Vobs versus degrader concentration were fit according to Equation 3 (Eq. 3) to generate apparent Kinact values using the GraphPad PRISM software.
where F is the fluorescence intensity from the plate reader, V0 is a constant reflecting the relationship between the instrument readout and product concentration, t is time, e is Euler's number, and Vobs is the observed inactivation rate constant.
where % Inhibition is percentage of inhibition, IC50 is half maximal inhibitory concentration, [I] is the degraders concentration, and n is the Hill slope.
where kobs is the observed inactivation rate constant, Kinact is the apparent inactivation rate constant, K1 is the apparent inhibition constant, and [I] is the degrader concentration.

T1 sequence (P49137 whole entry): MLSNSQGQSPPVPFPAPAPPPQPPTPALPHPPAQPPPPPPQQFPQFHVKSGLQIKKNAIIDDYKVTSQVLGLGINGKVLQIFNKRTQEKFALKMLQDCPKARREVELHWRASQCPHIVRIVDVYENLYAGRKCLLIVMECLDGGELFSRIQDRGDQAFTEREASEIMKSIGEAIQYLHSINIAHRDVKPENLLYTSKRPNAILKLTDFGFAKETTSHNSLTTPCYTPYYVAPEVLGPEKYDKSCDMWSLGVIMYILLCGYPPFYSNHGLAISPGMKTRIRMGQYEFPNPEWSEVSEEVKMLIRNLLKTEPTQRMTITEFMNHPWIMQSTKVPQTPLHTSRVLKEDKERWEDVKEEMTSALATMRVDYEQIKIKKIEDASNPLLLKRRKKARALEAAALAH

| pIC50 | Compound |
| --- | --- |
| > 6.82 | C[C@@H]1CNc2c(sc3ccc4nc(-c5ccc(C(=O)NC6CCN(c7ccc8c(C9CCC(=O)NC9=O)nn(C)c8c7)CC6)cc5F)ccc4c23)C(=O)N1 (stereo partly drawn) [Ex 1, N-(1-(3-(2,6-dioxopiperidin-3-yl)-1-methyl-1H-indazol-6-yl)piperidin-4-yl)-3-fluoro-4-((R)-10-methyl-8-oxo-9,10,11,12-tetrahydro-8H-[1,4]diazepino[5′,6′:4,5]thieno[3,2-f]quinolin-3-yl)benzamide] |
| > 6.82 | C[C@@H]1CNc2c(sc3ccc4nc(-c5ccc(C(=O)NCCN6CCN(c7ccc8c(C9CCC(=O)NC9=O)nn(C)c8c7)CC6)cc5F)ccc4c23)C(=O)N1 (stereo partly drawn) [Ex 2, N-(2-(4-(3-(2,6-dioxopiperidin-3-yl)-1-methyl-1H-indazol-6-yl)piperazin-1-yl)ethyl)-3-fluoro-4-((R)-10-methyl-8-oxo-9,10,11,12-tetrahydro-8H-[1,4]diazepino[5′,6′:4,5]thieno[3,2-f]quinolin-3-yl)benzamide] |
| > 6.82 | C[C@@H]1CNc2c(sc3ccc4nc(-c5ccc(C(=O)N[C@H]6C[C@H](CN7CCN(c8ccc9c(C%10CCC(=O)NC%10=O)nn(C)c9c8)CC7)C6)cc5F)ccc4c23)C(=O)N1 (stereo partly drawn) [Ex 3, N-((trans)-3-((4-(3-(2,6-Dioxopiperidin-3-yl)-1-methyl-1H-indazol-6-yl)piperazin-1-yl)methyl)cyclobutyl)-3-fluoro-4-((R)-10-methyl-8-oxo-9,10,11,12-tetrahydro-8H-[1,4]diazepino[5′,6′:4,5]thieno[3,2-f]quinolin-3-yl)benzamide] |
| > 6.82 | C[C@@H]1CNc2c(sc3ccc4nc(-c5ccc(C(=O)N[C@H]6C[C@H](CCN7CCN(c8ccc9c(C%10CCC(=O)NC%10=O)nn(C)c9c8)CC7)C6)cc5F)ccc4c23)C(=O)N1 (stereo partly drawn) [Ex 4, N-(trans-3-(2-(4-(3-(2,6-Dioxopiperidin-3-yl)-1-methyl-1H-indazol-6-yl)piperazin-1-yl)ethyl)cyclobutyl)-3-fluoro-4-((R)-10-methyl-8-oxo-9,10,11,12-tetrahydro-8H-[1,4]diazepino[5′,6′:4,5]thieno[3,2-f]quinolin-3-yl)benzamide] |
| > 6.82 | C[C@@H]1CNc2c(sc3ccc4nc(-c5ccc(C(=O)N[C@H]6CC[C@H](CN7CCN(c8ccc9c(C%10CCC(=O)NC%10=O)nn(C)c9c8)CC7)CC6)cc5F)ccc4c23)C(=O)N1 (stereo partly drawn) [Ex 5, N-(trans-4-((4-(3-(2,6-dioxopiperidin-3-yl)-1-methyl-1H-indazol-6-yl)piperazin-1-yl)methyl)cyclohexyl)-3-fluoro-4-((R)-10-methyl-8-oxo-9,10,11,12-tetrahydro-8H-[1,4]diazepino[5′,6′:4,5]thieno[3,2-f]quinolin-3-yl)benzamide] |
| > 6.82 | C[C@@H]1CNc2c(sc3ccc4nc(-c5ccc(C(=O)N[C@H]6CC[C@H](CCN7CCN(c8ccc9c(C%10CCC(=O)NC%10=O)nn(C)c9c8)CC7)CC6)cc5F)ccc4c23)C(=O)N1 (stereo partly drawn) [Ex 6, N-(trans-4-(2-(4-(3-(2,6-Dioxopiperidin-3-yl)-1-methyl-1H-indazol-6-yl)piperazin-1-yl)ethyl)cyclohexyl)-3-fluoro-4-((R)-10-methyl-8-oxo-9,10,11,12-tetrahydro-8H-[1,4]diazepino[5′,6′:4,5]thieno[3,2-f]quinolin-3-yl)benzamide] |
| > 6.82 | C[C@@H]1CNc2c(sc3ccc4nc(-c5ccc(C(=O)NC6CCN(c7ccc(C8CCC(=O)NC8=O)cc7)CC6)cc5F)ccc4c23)C(=O)N1 (stereo partly drawn) [Ex 7, N-(1-(4-(2,6-Dioxopiperidin-3-yl)phenyl)piperidin-4-yl)-3-fluoro-4-((R)-10-methyl-8-oxo-9,10,11,12-tetrahydro-8H-[1,4]diazepino[5′,6′:4,5]thieno[3,2-f]quinolin-3-yl)benzamide] |
| > 6.82 | C[C@@H]1CNc2c(sc3ccc4nc(-c5ccc(C(=O)NCCN6CCN(c7ccc(C8CCC(=O)NC8=O)cc7)CC6)cc5F)ccc4c23)C(=O)N1 (stereo partly drawn) [Ex 8, N-(2-(4-(4-(2,6-Dioxopiperidin-3-yl)phenyl)piperazin-1-yl)ethyl)-3-fluoro-4-((R)-10-methyl-8-oxo-9,10,11,12-tetrahydro-8H-[1,4]diazepino[5′,6′:4,5]thieno[3,2-f]quinolin-3-yl)benzamide] |
| > 6.82 | C[C@@H]1CNc2c(sc3ccc4nc(-c5ccc(C(=O)N[C@H]6CC[C@H](CN7CCN(c8ccc(C9CCC(=O)NC9=O)cc8)CC7)CC6)cc5F)ccc4c23)C(=O)N1 (stereo partly drawn) [Ex 9, N-(trans-4-((4-(4-(2,6-Dioxopiperidin-3-yl)phenyl)piperazin-1-yl)methyl)cyclohexyl)-3-fluoro-4-((R)-10-methyl-8-oxo-9,10,11,12-tetrahydro-8H-[1,4]diazepino[5′,6′:4,5]thieno[3,2-f]quinolin-3-yl)benzamide] |
| 6.30 to 6.82 | C[C@@H]1CNc2c(sc3ccc4nc(-c5ccc(C(=O)N[C@H]6CC[C@H](CCN7CCN(c8ccc(C9CCC(=O)NC9=O)cc8)CC7)CC6)cc5F)ccc4c23)C(=O)N1 (stereo partly drawn) [Ex 10, N-((trans)-4-(2-(4-(4-(2,6-Dioxopiperidin-3-yl)phenyl)piperazin-1-yl)ethyl)cyclohexyl)-3-fluoro-4-((R)-10-methyl-8-oxo-9,10,11,12-tetrahydro-8H-[1,4]diazepino[5′,6′:4,5]thieno[3,2-f]quinolin-3-yl)benzamide] |
| > 6.82 | C[C@@H]1CNc2c(sc3ccc4nc(-c5cccc(N6CCN(CCN7CCN(c8ccc(C9CCC(=O)NC9=O)cc8)CC7)CC6)c5)ccc4c23)C(=O)N1 (stereo partly drawn) [Ex 11, 3-(4-(4-(2-(4-(3-((R)-10-Methyl-8-oxo-9,10,11,12-tetrahydro-8H-[1,4]diazepino[5′,6′:4,5]thieno[3,2-f]quinolin-3-yl)phenyl)piperazin-1-yl)ethyl)piperazin-1-yl)phenyl)piperidine-2,6-dione] |
| > 6.82 | C[C@@H]1CNc2c(sc3ccc4nc(-c5cccc(N6CCN(CCN7CCN(c8ccc9c(C%10CCC(=O)NC%10=O)nn(C)c9c8)CC7)CC6)c5)ccc4c23)C(=O)N1 (stereo partly drawn) [Ex 12, 3-(1-Methyl-6-(4-(2-(4-(3-((R)-10-methyl-8-oxo-9,10,11,12-tetrahydro-8H-[1,4]diazepino[5′,6′:4,5]thieno[3,2-f]quinolin-3-yl)phenyl)piperazin-1-yl)ethyl)piperazin-1-yl)-1H-indazol-3-yl)piperidine-2,6-dione] |
| > 6.82 | C[C@@H]1CNc2c(sc3ccc4nc(-c5cccc(N6CCN(C(=O)C(=O)N7CCN(c8ccc(C9CCC(=O)NC9=O)cc8)CC7)CC6)c5)ccc4c23)C(=O)N1 (stereo partly drawn) [Ex 13, 3-(4-(4-(2-(4-(3-((R)-10-Methyl-8-oxo-9,10,11,12-tetrahydro-8H-[1,4]diazepino[5′,6′:4,5]thieno[3,2-f]quinolin-3-yl)phenyl)piperazin-1-yl)-2-oxoacetyl)piperazin-1-yl)phenyl)piperidine-2,6-dione] |
| > 6.82 | C[C@@H]1CNc2c(sc3ccc4nc(-c5cccc(N6CCN(C(=O)C(=O)N7CCN(c8ccc9c(C%10CCC(=O)NC%10=O)nn(C)c9c8)CC7)CC6)c5)ccc4c23)C(=O)N1 (stereo partly drawn) [Ex 14, 3-(1-Methyl-6-(4-(2-(4-(3-((R)-10-methyl-8-oxo-9,10,11,12-tetrahydro-8H-[1,4]diazepino[5′,6′:4,5]thieno[3,2-f]quinolin-3-yl)phenyl)piperazin-1-yl)-2-oxoacetyl)piperazin-1-yl)-1H-indazol-3-yl)piperidine-2,6-dione] |
